{"source": "paper PMC3923716", "about": "(PLoS Neglected Tropical Diseases, 2014)", "key": {"[1]": {"system": "adult female B. pahangi and Mf", "assay": "In vivo testing: adult female worms transplanted into the peritoneal cavity of BALB/c mice", "set-up": "species or system BALB/c mouse", "settings": "50 mg/Kg i.p. at day 0, 3 and 7", "from_the_text": "Adult worms were removed from the peritoneal cavity of infected jirds and rinsed in HBSS. 10 adult female worms were transplanted into the peritoneal cavity of each of ten male BALB/c mouse using standard methods, [28]. Adult worms were transferred into the peritoneal cavity of anaesthetized mice using a blunted glass hook. Not all mice received the full quota of 10 worms (see Table 1). […] This dose was selected on the basis of previous studies in a mouse xenograft model. […] The condition of any adult worms recovered was noted. Mf in the first 12 ml of peritoneal washings were pelleted by centrifugation and fixed in 2% formalin in water and stored at 4°C until counted. Mice were weighed at each time point to monitor any possible weight loss."}, "male worms (B. pahangi)": {"system": "male worms (B. pahangi)", "assay": "Adult male worm exposure in vitro", "assay_type": "cell-based, Brugia pahangi", "settings": "100 nM, day 7 of exposure", "experimental": "The remaining worms although alive, were extremely sluggish. […] Worms that were dying tended to burst and release their uterine contents and wells contained many embryonic stages in addition to Mf. […] By day 7 of exposure 100% of male worms exposed to 100 nM drug were dead."}, "adult female B. pahangi [2]": {"system": "adult female B. pahangi", "assay": "Short 24 h exposure of adult female worms, then medium alone", "assay_type": "cell-based, Brugia pahangi", "settings": "for mean Mf production: 24 h in drug and 24 h in medium alone; for lowest concentration with significantly fewer Mf: 250, 25, 10 nM tested"}, "Brugia Hsp90": {"system": "Brugia Hsp90", "assay": "Competition FP assay, Brugia Hsp90 (species not separated)", "assay_type": "binding", "settings": "read-out: IC50 for binding to Brugia Hsp90", "experimental": "(§1) The FP assay was set up essentially as described previously, [25]. […] The equilibrium binding of Cy3B-GA and recombinant human Hsp90α (Enzo Life Sciences, Farmingdale, NY USA) or parasite lysate was determined by creating a two-fold dilution series of protein/extract for an eleven-point curve with the first column containing no protein. […] All FP values are expressed in millipolarization (mP) units with the mP value of free Cy3B-GA probe set to 50. Equilibrium binding constants were determined by nonlinear regression using a one-site binding model (GraphPad Prism software).\n(§2) The relative binding affinities of inhibitors to human or parasite-derived Hsp90 was determined using competitive FP binding assays. […] For parasite-derived Hsp90, an amount of parasite lysate resulting in 50% of maximal Cy3B-GA binding was used. […] Stock solutions of each compound were prepared in DMSO at a concentration of 10 mM and 3-fold serial dilutions prepared in DMSO for eleven point curves. […] The final concentration of Cy3B-GA was 6 nM and the final DMSO concentration in all wells was 0.5%. Free Cy3B-GA (mP set to 50) and buffer only (background) wells were included as controls on each plate. Plates were incubated at 8°C with gentle shaking for 20 h."}, "adult female B. pahangi [3]": {"system": "adult female B. pahangi", "assay": "Adult female worm assay in vitro (Mf output and adult viability), continuous exposure", "assay_type": "cell-based, Brugia pahangi", "experimental": "For adult worm assays, adult female B. pahangi, 3–4 months old, were incubated individually in 2.0 ml of WCM overnight in 24-well plates and pre-screened for Mf production. […] For the drug experiments, six female worms of B. pahangi for each concentration of drug were cultured individually in 24-well plates in 2.0 ml of WCM containing drug, or carrier alone (DMSO) at a concentration equal to that in the highest concentration of drug. In some experiments, GA was used as a positive control. Initially, all five compounds were tested over selected concentrations starting at 2 µM to 100 nM (see Results for details). For Hsp90 inhibitors, Mf output by individual female worms is a sensitive indicator of adult worm viability and, in most experiments, was assessed at 72 h. In addition, adult worms were examined microscopically on a daily basis for 7–10 days to determine whether lower concentrations of drugs had any effects over a longer period of incubation. Results are expressed as mean Mf output ± SD over a 72 h period. Statistical significance between groups was calculated using the Mann Whitney test with P values<0.05 being considered significant."}, "B. malayi Hsp90": {"molecular_target": "B. malayi Hsp90 (Brugia malayi, UniProt A0A0H5S7Y7)", "assay": "Competition FP assay (displacement of Cy3B-GA), B. malayi lysate", "assay_type": "binding", "settings": "best fit (95% confidence intervals), read-out: B. malayi IC50", "experimental": "as §1, §2"}, "[4]": {"settings": "single dose of 50 mg/Kg, intra-peritoneal route; cited from earlier work"}, "[5]": {"system": "B. pahangi Mf (microfilariae)", "assay": "Mf viability in vitro", "assay_type": "cell-based, Brugia pahangi", "settings": "Mf", "experimental": "As adult Brugia worms are limited in numbers, initial experiments assessed the effect of each drug on Mf viability. Mf were purified from infected animals essentially as described previously. In brief, following lavage of the peritoneal cavity of an infected animal with Hanks Balanced Salt Solution (HBSS) pre-warmed to 37°C, Mf were collected by centrifugation and then purified from host cells by centrifugation through lymphoprep (Sigma). This procedure was repeated twice. Mf were collected from the pellet, washed twice in HBSS and once in worm culture medium (WCM) which comprised RPMI 1640, (Invitrogen Cat No: 52400), containing 5% heat inactivated fetal calf serum, 1% glucose, 100 units/ml penicillin and 100 µg/ml streptomycin (all Invitrogen). Mf were then dispensed into the wells of a 24-well plate to give approximately 200 Mf in 2.0 ml, using a single well for each drug concentration. All procedures were carried out using aseptic techniques. The five novel compounds, plus GA and medium alone controls, were tested three times against Mf over the full range of concentrations."}, "B. pahangi Hsp90": {"molecular_target": "T1, B. pahangi Hsp90 (Brugia pahangi, UniProt O61998)", "T1 construct": "Adult worms of B. pahangi were obtained from infected jirds; from tissue; host or cells: whole adult B. pahangi worms, ground and lysed in HFB buffer", "assay": "Competition FP assay (displacement of Cy3B-GA), B. pahangi lysate", "assay_type": "binding", "settings": "FP assay; best fit (95% confidence intervals); read-out: B. pahangi IC50", "experimental": "Adult worms of B. pahangi were obtained from infected jirds after 3–4 months, exactly as described previously and were frozen in liquid nitrogen, ground in a pestle and mortar to a fine powder and re-suspended in an appropriate volume of HFB assay buffer (20 mM HEPES, pH 7.3, 50 mM KCl, 5 mM MgCl2, 20 mM Na2MoO4, 1% NP40). Protein concentrations were estimated using the BioRad protein assay. At this point lysates were freeze-dried for shipping to the USA.\nas §1, §2"}, "L3 stage of B. pahangi": {"system": "L3 stage of B. pahangi", "assay": "L3 viability in vitro", "assay_type": "cell-based, Brugia pahangi", "settings": "6 days exposure", "experimental": "L3 stages were harvested from mosquitoes nine days post-infection. L3 were picked individually with a fine glass pipette, counted and washed three times in HBSS containing 1000 units/ml of penicillin and 1000 µg/ml streptomycin by sedimentation at room temperature. 20–30 L3 per well were plated out in duplicate in 24-well plates in 2.0 ml of WCM containing drug, or carrier alone (DMSO) and cultured at 37°C for up to 7 days. […] This experiment was repeated twice."}, "[6]": {"settings": "recovery 9 days after last dose"}}, "note": "Several values for one entry are separate records, joined by “and”; a condition that tells them apart may be missing. Equal entries are not always repeated. Marks after values point to notes of the source that are not given here."}
{"molecule": "CCNC(=O)c1noc(-c2cc(C(C)C)c(O)cc2O)c1-c1ccc(CN2CCOCC2)cc1", "note": "[NVP-AUY922]", "values": [{"measurement": "Mean no Mf per mouse", "setting": "[1]; first 12 ml of peritoneal washings", "result": "4730±5101"}, {"measurement": "recovery of live worms", "setting": "[1]; range over treated mice", "result": "0–11%"}, {"measurement": "Total number worms recovered", "setting": "[1]; recovered/transplanted", "result": "8/48 ^**"}, {"measurement": "No. mice with live Mf", "setting": "[1]; [6]", "result": "2/5"}, {"measurement": "No. mice with viable worms", "setting": "[1]; [6]", "result": "2/5"}, {"measurement": "No. mice with worms", "setting": "[1]; [6]", "result": "5/5"}, {"measurement": "No. viable worms recovered", "setting": "[1]; [6]", "result": 2}, {"measurement": "viable worms recovered (mean % ± SD)", "setting": "[1]; [6]", "result": "4.4±6.0", "unit": "%"}, {"measurement": "male worms dead", "setting": "male worms (B. pahangi)", "result": 100, "unit": "%"}, {"measurement": "mean Mf production", "setting": "adult female B. pahangi [2]; 10 nM, not significant vs DMSO", "result": "910±674", "unit": "Mf"}, {"measurement": "mean Mf production", "setting": "adult female B. pahangi [2]; 25 nM", "result": "100±60", "unit": "Mf"}, {"measurement": "mean Mf production", "setting": "adult female B. pahangi [2]; 250 nM", "result": "11±23", "unit": "Mf"}, {"measurement": "condition of adult worms", "setting": "adult female B. pahangi [2]; 24 h exposure to 10 nM, day 9, vs DMSO controls", "result": "no obvious difference"}, {"measurement": "condition of adult worms", "setting": "adult female B. pahangi [2]; 24 h exposure to 25 nM, day 9", "result": "noticeably more sluggish than control worms"}, {"measurement": "condition of adult worms", "setting": "adult female B. pahangi [2]; 24 h exposure to 250 nM, 9 days in medium alone", "result": "barely moving, but they were still alive"}, {"measurement": "lowest concentration with significantly fewer Mf", "setting": "adult female B. pahangi [2]; 24 h in drug and 48 h in medium alone", "result": 10, "unit": "nM"}, {"measurement": "lowest concentration with significantly fewer Mf", "setting": "adult female B. pahangi [2]; after 24 h in drug", "result": 25, "unit": "nM"}, {"measurement": "IC50", "setting": "Brugia Hsp90", "result": "~1", "unit": "nM"}, {"measurement": "adult worm survival at lower concentrations", "setting": "adult female B. pahangi [3]; 10 and 5.0 nM, motility affected", "result": "did not die"}, {"measurement": "lowest concentration with significant inhibitory effect on Mf output", "setting": "adult female B. pahangi [3]; 72 h exposure, titrated 500 nM to 1.0 nM", "result": 10, "unit": "nM"}, {"measurement": "adult worms killed", "setting": "adult female B. pahangi [3]; 6 days exposure, 25 nM", "result": 50, "unit": "%"}, {"measurement": "adult worms dead", "setting": "adult female B. pahangi [3]; 6 days exposure, 25 nM, typical experiment", "result": "3/6"}, {"measurement": "adult worms dead", "setting": "adult female B. pahangi [3]; 6 days exposure, 50 nM, typical experiment", "result": "4/6"}, {"measurement": "adult worms dead", "setting": "adult female B. pahangi [3]; 6 days exposure, 100 nM and above", "result": "all adult worms were dead"}, {"measurement": "lowest concentration with significant decrease in Mf output", "setting": "adult female B. pahangi [3]; 6 days exposure, not significant at 1.0 nM", "result": "5.0 nM and 5 nM"}, {"measurement": "concentration with significant effect on Mf output", "setting": "adult female B. pahangi [3]; initial screen 2.0 µM to 100 nM, adult female worms", "result": "≤ 100", "unit": "nM"}, {"measurement": "IC50", "setting": "B. malayi Hsp90", "result": 0.95, "unit": "nM"}, {"measurement": "time of maximum plasma level post-dosing", "setting": "[4]", "result": 0.25, "unit": "h"}, {"measurement": "% death by day 7", "setting": "[5]; 0.976 nM", "result": 75, "unit": "%"}, {"measurement": "% death by day 7", "setting": "[5]; 1.95 nM", "result": 100, "unit": "%"}, {"measurement": "IC50", "setting": "B. pahangi Hsp90", "result": 0.64, "unit": "nM"}, {"measurement": "effect on L3", "setting": "L3 stage of B. pahangi; 1 nM or below", "result": "no effect"}, {"measurement": "L3 dead", "setting": "L3 stage of B. pahangi; 5.0 nM, remainder moving very slowly", "result": "approximately 30%"}, {"measurement": "L3 dead", "setting": "L3 stage of B. pahangi; all concentrations down to and including 10 nM", "result": 100, "unit": "%"}]}
